Data set [1] can be described thus: stability of crystalline form versus the anhydrous mesylate salt. To be noted: compared with the anhydrous mesylate salt. The format is physicochemical.

SMILES strings stand for the structures. Structures can show the parent of a compound that is named as a salt.

In general, melting point refers to the temperature of the solid-liquid transition. On to `C[C@@H](C(=O)c1ccc(OCc2ccccc2)cc1)N1CCC(O)(c2ccccc2)CC1`, for which the melting point fell in the range of 102.5 to 103.8 °C. Turning to `C[C@@H]([C@@H](O)c1ccc(O)cc1)N1CCC(O)(c2ccccc2)CC1` [mesylate salt trihydrate, (1S,2S)-1-(4-Hydroxyphenyl)-2-(4-hydroxy-4-phenylpiperidino)-1-propanol, Methanesulfonate Salt Trihydrate], the “stability of crystalline form / shelf life” value in data set [1] is reported as “more stable crystalline form than the anhydrous mesylate salt”.

Source of the values: patent publication US6570018B2 (Pfizer Inc, priority 2000, dated 2003).
